This is an account of results in US11274131B2, “IgM-mediated receptor clustering and cell modulation” (MAYO FOUNDATION FOR MEDICAL EDUCATION AND RESEARCH, priority 2007, dated 2022).

“Also recorded” adds a separate entry of the source.

One experiment has as its system B16 melanoma cells. Conditions: mice injected intravenously with antibody directly or DCs pre-treated with antibody and tumor antigen; cited from earlier work.
The next experiment deals with CpG-treated DCs. Description: Antigen persistence in CpG-treated DCs. It counts as cell-based, mouse. The note with it: CpG-treated wild type DCs or B7DC−/− DCs. The procedure: FIG. 15 is a series of histograms showing restoration of antigen persistence in CpG-treated DCs expressing Kb-peptide constructs upon treatment with the appropriate MTab. DCs were untreated (blue) or treated with 10 ug/mL CpG (red) 48 hours prior to harvesting. They were then pulsed with Ovalbumin-Alexa647 and either hIgM12, hIgM22, or 28-13-3, and Ovalbumin-647 levels were measured in CD11c positive cells by flow cytometry.
The ability of Kb-peptide expressing DCs to alter antigen processing was then tested. Untreated DCs take up fluorochrome-labeled protein, and the fluorochrome labeled protein persists over 24 hours, as measured by flow cytometry. DCs treated with a Toll receptor agonist (LPS, CpG, or Polyl:C) 24 hours prior to addition of protein lose their ability to take up and maintain this antigen. […] The ability of B7DC−/− DCs transduced with the Kb-peptide constructs was compared to wild type DCs or knockouts transduced with B7DC.

The test system of experiment [1] is mouse bone marrow-derived DC. Description: IL-6 ELISA of DC supernatants. It counts as cell-based. Conditions: 48 hours. The procedure: Six day mouse bone marrow-derived DC from wild type or IL-6 KO mice were stimulated with isotype control antibody sHIgM39 or B7-DC XAb. IL-6 levels in culture supernatants were assessed 48 hours later by ELISA.
DC of wild type origin or from CD40 deficient mice were stimulated with 10 μg/ml control antibody or B7-DC XAb for 48 hours. Supernatants from the different treatment groups were harvested and quantified for the amount of IL-6 by sandwich ELISA as per the manufacturer's protocol (eBioscience, San Diego, Calif.).
(In an ELISA, binding on a coated surface is turned into a signal by an enzyme label.)

The test system of another experiment is bone-marrow derived DCs. Put plainly: FRET on DCs expressing Kb-peptide constructs. The class given is cell-based, mouse. The procedure:
Kb, Kb-12p9A, Kb-22p3, and Kb-22p12p were placed in a VSV-G pseudotyped pBabe Puro retroviral vector, a vector based on the Maloney Murine Retrovirus. […] Retrovirus was produced by transient […] of 293T cells, and supernatant was concentrated 100:1 by ultracentrifugation on a 10% sucrose cushion. The retrovirus was titered with a colony forming unit assay of HT-1080 cells transduced with limiting dilutions of the supernatant concentrate, followed by selection with 2 ug/mL puromycin. To make DCs, bone marrow was harvested from Balb/c, C57BL6 mice or B7DC−/− mice on a C57BL6 background.
Bone marrow was placed in RPMI+10% Cosmic Calf Serum with 1 ng/mL IL-4 and 10 ng/mL GM-CSF, and plated at 10^6/mL in 24 well plates. On day 2 post-plating, media was aspirated; fresh media was added with 0.5 MOI retrovirus and 4 ug/mL polybrene. Using this system, the peptide constructs were expressed in cultured DCs (FIG. 13).
To directly compare the activity of the MTabs hIgM12 and hIgM22, a series of well-defined biological outputs of treatment of wild type DCs with hIgM12 was used. FRET was used as an output for formation of the multimolecular cap seen upon binding of hIgM12 to wild type DCs. The emission of phycoerythrin (PE) was used to excite APC, which normally emits in the FL4 channel but under FRET emits in the FL3 channel. Experiments were conducted to test FRET of CD40-PE to Class II APC, and CD80-PE to Class II APC (FIG. 14). Either wild type C57BL6 DCs or B7DC−/− DCs transduced with either B7DC or the Kb constructs were used. DCs were stained with the fluorochrome-labeled antibodies, and then treated for 15 minutes at 37° C. with 10 μg/mL of either hIgM12, hIgM22, or 28-13-3.

For the substance “B7-DC XAb: human monoclonal IgM from a Waldenstrom's macroglobulinemia patient that binds and cross-links B7-DC on DC”, the “protection against B16 melanoma challenge” value with B16 melanoma cells is recorded as “protected against challenge by B16 melanoma cells”. Besides, in the experiment on CpG-treated DCs, the antigen persistence result is reported as “restored to untreated levels”. Moreover, the IL-6 secretion entry in experiment [1] (DC from CD40 KO mice) is “absence of NF-κB activation and IL-6 secretion; also recorded: do not secrete IL-6”; in experiment [1] (DC from wild type mice), “producing IL-6”. The FRET response result with bone-marrow derived DCs (B7DC−/− DCs with restored B7DC expression) was “responded as well”; with bone-marrow derived DCs (B7DC−/− Kb-12p9A DCs), “responded”; in the experiment with bone-marrow derived DCs (B7DC−/− Kb-22p12p DCs) it was “responded”. For the same substance, in the experiment on bone-marrow derived DCs (wild type DCs, 10 μg/mL, 15 minutes), the “FRET response (CD40-PE or CD80-PE to Class II APC)” value is given as “responded”.
